What was measured:
[1] = logP (acidic, pH 2.3)
[2] = test system: Erysiphe graminis f. sp. Hordei; test: Erysiphe test (barley) / protective; type: in vivo; conditions: Blumeria graminis, 168 h; barley plants, protective spray, 500 ppm active compound, evaluation 7 days after inoculation; read-out: efficacy
Protocol: Solvent: 49 parts by weight of N,N-dimethylformamide
Emulsifier: 1 part by weight of alkylaryl polyglycol ether
To produce a suitable preparation of active compound, 1 part by weight of N-ethyl-N-methyl-N′-[4-phenoxy-2,5-xylyl]formamidine (according to formula I-a) is mixed with the stated amounts of solvent and emulsifier, and the concentrate is diluted with water to the desired concentration.
To test for protective activity, young cereal plants are sprayed with the active compound preparation at the stated application rate. 1 day after the treatment, the plants are inoculated with spores of Erysiphe graminis f. sp. Hordei. The plants are then placed in a greenhouse at 70% relative atmospheric humidity and a temperature of 18° C.
Evaluation is carried out 7 days after the inoculation. 0% means an efficacy which corresponds to that of the control, whereas an efficacy of 100% means that no infection is observed.

Compound | log P (pH2.3) ([1]; pH 2.3) | logP ([1]; pH 2.3) | pest or weed control at 500 ppm [2] | logP acidic ([1]; acidic)
4-(3-Isopropylphenoxy)-2-chloro-5-methylnitrobenzene | 5.54 | – | – | –
Cc1cc(N)c(Cl)cc1Oc1cccc(C(C)C)c1 [4-(3-Isopropylphenoxy)-2-chloro-5-methylaniline] | – | 4.68 | – | –
CCN(C)C=Nc1cc(C)c(Oc2cccc(C(C)(CC)OC)c2)cc1C (stereo not shown) [Compound 8, N-ethyl-N′-{4-[3-(1-methoxy-1-methylpropyl)phenoxy]-2,5-dimethylphenyl}-N-methylimidoformamide] | – | – | ≥ 70% | –
CCN(C)C=Nc1cc(C)c(Oc2cccc(C(C)(C)OC)c2)cc1C [Compound 37, N-ethyl-N′-{4-[3-(1-methoxy-1-methylethyl)phenoxy]-2,5-dimethylphenyl}-N-methylimidoformamide] | – | 2.14 | ≥ 70% | –
CCN(C)C=Nc1cc(C)c(Oc2cccc(CCCO)c2)cc1C [Compound 57-1, N-ethyl-N′-{4-[3-(3-hydroxypropyl)phenoxy]-2,5-dimethylphenyl}-N-methylimidoformamide] | – | 1.56 | – | –
Cc1cc(Oc2cccc(CCCO)c2)c(C)cc1N=CN(C)C(C)C [Compound 57-2, N′-{4-[3-(3-hydroxypropyl)phenoxy]-2,5-dimethylphenyl}-N-isopropyl-N-methylimidoformamide] | – | 1.67 | ≥ 70% | –
CCN(C)C=Nc1cc(C)c(Oc2cccc(C(C)C)c2)cc1Cl [Compound 61-1, N′-[2-chloro-4-(3-isopropylphenoxy)-5-methylphenyl]-N-ethyl-N-methylimidoformamide] | – | 2.38 | ≥ 70% | –
Cc1cc(N=CN(C)C(C)C)c(Cl)cc1Oc1cccc(C(C)C)c1 [Compound 61-2, N′-[2-chloro-4-(3-isopropylphenoxy)-5-methylphenyl]-N-isopropyl-N-methylimidoformamide] | – | 2.54 | ≥ 70% | –
Cc1cc(/N=C/N2CCCCC2)c(Cl)cc1Oc1cccc(C(C)C)c1 [Compound 61-3, 2-chloro-4-(3-isopropylphenoxy)-5-methyl-N-[(1E)-piperidin-1-ylmethylene]aniline] | – | 2.62 | – | –
Cc1cc(/N=C/N2CCCCC2C)c(Cl)cc1Oc1cccc(C(C)C)c1 (stereo not shown) [Compound 61-4, 2-chloro-4-(3-isopropylphenoxy)-5-methyl-N-[(1E)-(2-methylpiperidin-1-yl)methylene]aniline] | – | 2.67 | – | –
CCN(C)C=Nc1cc(C)c(Oc2cccc(CC(C)(C)C)c2)cc1C [Compound 62, N′-{4-[3-(2,2-dimethylpropyl)phenoxy]-2,5-dimethylphenyl}-N-ethyl-N-methylimidoformamide] | – | 2.74 | ≥ 70% | –
CCN(C)C=Nc1cc(C)c(Oc2cccc(C[Si](C)(C)C)c2)cc1C [Compound 63, N′-(2,5-dimethyl-4-{3-[(trimethylsilyl)methyl]-phenoxy}phenyl)-N-ethyl-N-methylimido-formamide] | – | 2.93 | ≥ 70% | –
CCN(C)C=Nc1cc(C)c(Oc2cccc(C3CC3)c2)cc1C [Compound 64, N′-[4-(3-cyclopropylphenoxy)-2,5-dimethylphenyl]-N-ethyl-N-methylimido-formamide] | – | 2.35 | ≥ 70% | –
CCCN(C)C=Nc1cc(C)c(Oc2cccc(C(C)(C)OC)c2)cc1C [Compound 65-1, N′-{4-[3-(1-methoxy-1-methylethyl)-phenoxy]-2,5-dimethylphenyl}-N-methyl-N-propyl imidoformamide] | – | – | – | 2.50
COC(C)(C)c1cccc(Oc2cc(C)c(/N=C/N3CC(C)OC(C)C3)cc2C)c1 (stereo not shown) [Compound 65-2, N-[(1E)-(2,6-dimethyl-morpholin-4-yl)methylene]-4-[3-(1-methoxy-1-methylethyl)phenoxy]-2,5-dimethylaniline] | – | 2.24 | – | –

Reference: patent US8394991B2, “Phenoxy substituted phenylamidine derivatives and their use as fungicides” (Bayer Cropscience AG, priority 2007, dated 2013)
